Laboratory results from patent US7713963B2, “Acylated indanyl amines and their use as pharmaceuticals” (sanofi-aventis Deutschland GmbH, priority 2001, dated 2010).
Read-outs that look alike come from different tables or passages of the source.

Legend:
eNOS promoter = assay: Activation of eNOS transcription (eNOS promoter-luciferase reporter gene assay); assay type: cell-based, human; settings: 18 h incubation; for maximal fold induction / TIR (max): maximum transcription induction ratio (luciferase with compound / solvent alone); for maximal fold induction: read-out: TIR (max); for EC50: EC50 of transcription induction ratio, determined graphically, human endothelial cell line, read-out: EC-50
Description: Measurement of activation of eNOS transcription Activation of eNOS transcription was measured as described in detail in Li et al. “Activation of protein kinase C alpha and/or epsilon enhances transcription of the human endothelial nitric oxide synthase gene”, Mol. Pharmacol. 1998; 53: 630-637. Briefly, a 3.5 kB long fragment 5′ of the starting codon of the eNOS gene was cloned, sequenced and cloned in firefly luciferase expression plasmids to monitor activation of the eNOS promoter by reporter gene activity. A human endothelial cell line stable transfected and expressing this promoter-reporter construct was used for compound testing. Cells were incubated for 18 h with compounds. All compounds were dissolved in sterile DMSO. A final concentration of 0.5% DMSO in complete medium was allowed. Induction of reporter gene expression in these cells was measured using a standard luciferase assay system (Promega, Cat. No E150) according to the manufacturer's instructions. Luciferase induction in cells incubated with compounds were compared to those incubated with solvent alone. The ratio of both activities (transcription induction ratio, TIR) was plotted as a function of compound concentration. […] EC50 values of transcription induction ratios as a function of compound concentration were determined graphically.

[1] = Homo sapiens, Endothelial cell, 18 h

Row | Compound | melting point | maximal fold induction (eNOS promoter; Homo sapiens, 18 h) | EC50 (eNOS promoter; [1]) | EC50 (eNOS promoter) | TIR (max) (eNOS promoter)
1 | O=C(NC1Cc2cccc(-c3ccc(F)cc3)c2C1)c1ccc(F)cc1 (stereo not shown) [Compound 398B, 4-FLUORO-N-[4-(4-FLUOROPHENYL)-INDAN-2-YL]-BENZAMIDE] | 157 °C | 3.46 | 30 µM |  | 
2 | O=C(NC1Cc2ccccc2C1)c1ccc2c(c1)OC(F)(F)O2 [Compound 66, 2,2-DIFLUORO-BENZO[1,3]DIOXOL-5-CARBOXYLIC ACID INDAN-2-YLAMIDE] | 147.5 °C | 2.7 | 0.14 µM |  | 
3 | CC(=O)c1ccc2c(c1)CC(NC(=O)c1ccc(F)cc1)C2 (stereo not shown) [Compound 399, N-(5-ACETYL-INDAN-2-YL)-4-FLUORO-BENZAMIDE] | 148 °C |  |  |  | 
4 | COc1cc2c(cc1OC)CC(NC(=O)c1ccc(F)cc1)C2 [Compound 3, 4-FLUORO-N-(5,6-DIMETHOXY-INDAN-2-YL)-BENZAMIDE] | 160 °C |  |  |  | 
5 | O=C(NC1Cc2ccc(-c3ccc(F)cc3)cc2C1)c1ccc(F)cc1 (stereo not shown) [Compound 398A, 4-FLUORO-N-[5-(4-FLUOROPHENYL)-INDAN-2-YL]-BENZAMIDE] | 193 °C |  |  |  | 
6 | O=C(NC1Cc2ccc([N+](=O)[O-])cc2C1)c1ccc(F)cc1 (stereo not shown) [Compound 389, 4-FLUORO-N-(5-NITRO-INDAN-2-YL)-BENZAMIDE] | 167 °C |  |  |  | 
7 | CS(=O)(=O)Nc1cccc(C(=O)NC2Cc3ccccc3C2)c1 [Compound 388, N-INDAN-2-YL-3-METHANE SULFONYLAMINO-BENZAMIDE] |  |  |  | 1.1 µM | 2.4
8 | O=C(NC1Cc2ccccc2C1)c1ccc(Cl)nc1 [Compound 387, 6-CHLORO-N-INDAN-2-YL-NICOTINAMIDE] |  | 2.6 | 32 µM |  | 
9 | O=C(NC1Cc2ccccc2C1)c1ccc(C(F)(F)F)nc1 [Compound 236, N-INDAN-2-YL-6-TRIFLUOROMETHYL-NICOTINAMIDE] |  | 2 | 22 µM |  | 
10 | CC(C)C(=O)Nc1cccc(C(=O)NC2Cc3ccccc3C2)c1 [Compound 372, N-INDAN-2-YL-3-ISOBUTYRYLAMINO-BENZAMIDE] |  | 2.7 | 1.6 µM |  | 
11 | O=C(NC1Cc2ccccc2C1)c1ccc(Oc2ccccc2)cc1 [Compound 32, 4-PHENOXY-N-INDAN-2-YL-BENZAMIDE] |  | 4 | 1.7 µM |  | 
12 | O=C(NC1Cc2ccccc2C1)c1ccc(Br)cc1F [Compound 350, 4-BROMO-2-FLUORO-N-INDAN-2-YL-BENZAMIDE] |  | 2.9 | 0.523 µM |  | 
13 | Cc1cccc(C(=O)NC2Cc3ccccc3C2)c1F [Compound 249, 2-FLUORO-N-INDAN-2-YL-3-METHYL-BENZAMIDE] |  | 2.5 | 15 µM |  | 
14 | Cc1sccc1C(=O)NC1Cc2ccccc2C1 [Compound 365, 2-METHYL-THIOPHENE-3-CARBOXYLIC ACID INDAN-2-YLAMIDE] |  | 3 | 0.25 µM |  | 
15 | O=C(NC1Cc2ccccc2C1)c1ccc(F)c(F)c1F [Compound 320, 2,3,4-TRIFLUORO-N-INDAN-2-YL-BENZAMIDE] |  | 3 | 12 µM |  | 
16 | O=C(NC1Cc2ccccc2C1)c1c(F)ccc(F)c1F [Compound 274, 2,3,6-TRIFLUORO-N-INDAN-2-YL-BENZAMIDE] |  |  | 21 µM |  | 
17 | CS(=O)(=O)c1ccc(C(=O)NC2Cc3ccccc3C2)c(Cl)c1 [Compound 312, 2-CHLORO-N-INDAN-2-YL-4-METHANESULFONYL-BENZAMIDE] |  | 2.2 | 16 µM |  | 
18 | O=C(NC1Cc2ccccc2C1)c1cccc(F)c1 [Compound 24, 3-FLUORO-N-INDAN-2-YL-BENZAMIDE] |  | 2.88 | 2.5 µM |  | 
19 | O=C(NC1Cc2ccccc2C1)c1cccc(Cl)c1F [Compound 250, 3-CHLORO-2-FLUORO-N-INDAN-2-YL-BENZAMIDE] |  | 2.5 | 58 µM |  | 
20 | Cc1cc(C)c(C(=O)NC2Cc3ccccc3C2)cn1 [Compound 189, N-INDAN-2-YL-4,6-DIMETHYL-NICOTINAMIDE] |  | 2.2 | 10 µM |  | 

Row | Compound | melting point | maximal fold induction (eNOS promoter; Homo sapiens, 18 h) | EC50 (eNOS promoter; [1]) | EC50 (eNOS promoter) | TIR (max) (eNOS promoter)
21 | CCOc1ccc(C(=O)NC2Cc3ccccc3C2)c(O)c1 [Compound 23, 4-ETHOXY-2-HYDROXY-N-INDAN-2-YL-BENZAMIDE] |  | 2.2 | 5 µM |  | 
22 | O=C(NC1Cc2ccccc2C1)c1ccc(Cl)cc1 [Compound 69, 4-CHLORO-N-INDAN-2-YL-BENZAMIDE] |  | 4.2 | 0.4 µM |  | 
23 | O=C(NC1Cc2ccccc2C1)c1ccccc1Br [Compound 272, 2-BROMO-N-INDAN-2-YL-BENZAMIDE] |  | 2.9 | 1.6 µM |  | 
24 | Cc1ccc2c(c1)CC(NC(=O)c1ccc(F)cc1)C2 (stereo not shown) [Compound 5, 4-FLUORO-N-(5-METHYL-INDAN-2-YL)-BENZAMIDE] |  | 2.5 | 30 µM |  | 
25 | CC(O)c1ccc2c(c1)CC(NC(=O)c1ccc(F)cc1)C2 (stereo not shown) [Compound 402, 4-FLUORO-N-[5-(1-HYDROXY-ETHYL)-INDAN-2-YL]-BENZAMIDE] | 135 °C |  |  |  | 
26 | Cc1cccc2c1CC(NC(=O)c1ccc(F)cc1)C2 (single isomer, unassigned; (+)) [Compound 1b, (+)-4-Fluoro-N-(4-methyl-indan-2-yl)-benzamide] |  |  |  | 0.2 µM | 3.00
27 | Cc1ccc2c(Cl)c(C(=O)NC3Cc4ccccc4C3)sc2c1 [Compound 332, 3-CHLORO-6-METHYL-BENZO[B]THIOPHENE-2-CARBOXYLIC ACID INDAN-2-YLAMIDE] |  | 2 | 4 µM |  | 
28 | O=C(NC1Cc2ccccc2C1)c1ccc(-c2cccnc2)cc1 [Compound 435, N-INDAN-2-YL-4-PYRIDIN-3-YL-BENZAMIDE] |  | 2.5 | 14 µM |  | 
29 | O=C(NC1Cc2ccccc2C1)c1ccc(SC(F)(F)F)cc1 [Compound 246, N-INDAN-2-YL-4-TRIFLUOROMETHYLSULFANYL-BENZAMIDE] |  | 2.5 | 0.67 µM |  | 
30 | O=C(NC1Cc2ccccc2C1)c1ccc(Cl)c(Cl)c1 [Compound 314, 3,4-DICHLORO-N-INDAN-2-YL-BENZAMIDE] |  | 2.2 | 12 µM |  | 
31 | Cc1cccc2c1CC(NC(=O)c1ccc(F)cc1)C2 (single isomer, unassigned; (-)) [Compound 1a, (−)-4-Fluoro-N-(4-methyl-indan-2-yl)-benzamide] |  | 2.8 |  | 6 µM | 
32 | Cc1ccc(C)n1-c1ccc(C(=O)NC2Cc3ccccc3C2)cc1 [Compound 327, 4-(2,5-DIMETHYL-PYRROL-1-YL)-N-INDAN-2-YL-BENZAMIDE] |  | 2.5 | 2.6 µM |  | 
33 | Cc1c(Cl)cccc1C(=O)NC1Cc2ccccc2C1 [Compound 257, 3-CHLORO-N-INDAN-2-YL-2-METHYL-BENZAMIDE] |  | 2.7 | 4.3 µM |  | 
34 | O=C(NC1Cc2ccccc2C1)c1ccc(F)cc1Br [Compound 61, 2-BROMO-4-FLUORO-N-INDAN-2-YL-BENZAMIDE] |  | 2.6 | 0.7 µM |  | 
35 | O=C(NC1Cc2ccccc2C1)c1ccc(Br)cc1Cl [Compound 317, 4-BROMO-2-CHLORO-N-INDAN-2-YL-BENZAMIDE] |  | 2.9 | 0.197 µM |  | 
36 | Cc1cc(C(=O)NC2Cc3ccccc3C2)c(C)[nH]1 [Compound 216, 2,5-DIMETHYL-1H-PYRROLE-3-CARBOXYLIC ACID INDAN-2-YLAMIDE] |  | 2.8 | 0.7 µM |  | 
37 | O=C(NC1Cc2ccccc2C1)c1cc2cc(Cl)ccc2[nH]1 [Compound 315, 5-CHLORO-1H-INDOLE-2-CARBOXYLIC ACID INDAN-2-YLAMIDE] |  | 2.2 | 16 µM |  | 
38 | O=C(NC1Cc2ccc(O)cc2C1)c1ccc(F)cc1 (stereo not shown) [Compound 404, 4-FLUORO-N-(5-HYDROXY-INDAN-2-YL)-BENZAMIDE] | 199 °C | 3.5 | 12 µM |  | 
39 | O=C(NC1Cc2ccccc2C1)c1ccc(OCc2ccccc2)cc1 [Compound 40, 4-BENZYLOXY-N-INDAN-2-YL-BENZAMIDE] | 158.5 °C |  |  |  | 
40 | O=C(NC1Cc2ccccc2C1)c1ccc(Br)cc1 [Compound 289, 4-BROMO-N-INDAN-2-YL-BENZAMIDE] |  | 2.6 | 0.142 µM |  | 
